The text below walks through data of publication PMC9696794, “Synthesis and Antimicrobial Activity of Short Analogues of the Marine Antimicrobial Peptide Turgencin A: Effects of SAR Optimizations, Cys-Cys Cyclization and Lipopeptide Modifications” (International Journal of Molecular Sciences, 2022).

Molecules are shown by their SMILES. Where a SMILES comes first, the peptide text is derived from it. Bridges are numbered along the chain shown (N, C = ends). The star is where a group is joined. Lauroyl = CCCCCCCCCCCC(=O)*; Octanoyl = CCCCCCCC(=O)*

In assay [1] the test system is Gram-positive bacterial strains. Conditions: Table S3; MIC >256 set to 256. The essentials: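 Cultures grown in Mueller–Hinton broth were adjusted by OD600 to 2.5–3 × 10^4 CFU/mL and mixed with two-fold peptide dilutions from 256 to 1 µg/mL. Plates were incubated at 35 °C with OD595 monitored every hour for 24 h.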
Assay [2] has as its system S. aureus (ATCC 9144). As to the kind of experiment: Bacterial killing experiment (CFU count after MIC assay). The format is cell-based, Staphylococcus aureus. On the procedure:
A killing experiment was performed on selected lipopeptides by using actively growing cultures of S. aureus (ATCC 9144) and E. coli (ATCC 25922). The procedure was performed as previously described. […] The number of colony-forming units (CFU) was determined after 24 h of incubation at 37 °C. The tests were performed in triplicate.

Where [3] appears, read: at half-MIC, compared to growth control.

For `CCCCCCCC(=O)N[C@H]1CSSC[C@@H](C(=O)N[C@@H](CCCCN)C(=O)N[C@@H](CC(C)C)C(N)=O)NC(=O)[C@H](CCCCN)NC(=O)[C@H](Cc2c[nH]c3ccccc23)NC(=O)CNC(=O)[C@H](Cc2c[nH]c3ccccc23)NC(=O)[C@H](Cc2c[nH]c3ccccc23)NC(=O)[C@H](CCCCN)NC(=O)[C@H](CCCCN)NC(=O)CNC1=O` [Peptide C8-cTurg-2, C8- (CGKKWWGWKC)KL-NH2] (Octanoyl-CGKKWWGWKCKL-NH2; disulfide 1-10), the “GM of MIC G+” value in assay [1] is given as 3 µg/mL. Also, the “colony-forming units (CFU) after treatment” value is given as “No CFU were observed” in assay [2] (at MIC (or above), 24 h) and “slightly less colony-forming units (CFU) were formed” in assay [2] (setting [3]).

Turning to `CCCCCCCCCCCC(=O)N[C@H]1CSSC[C@@H](C(=O)N[C@@H](CCCCN)C(=O)N[C@@H](CC(C)C)C(N)=O)NC(=O)[C@H](CCCCN)NC(=O)[C@H](Cc2c[nH]c3ccccc23)NC(=O)CNC(=O)CNC(=O)[C@@H]2CCCN2C(=O)[C@H](CCCCN)NC(=O)[C@H](CCCCN)NC(=O)CNC1=O` [Peptide C12-cTurg-1, C12 -(CGKKPGGWKC)KL-NH2] (Lauroyl-CGKKPGGWKCKL-NH2; disulfide 1-10), the “GM of MIC G+” value in assay [1] is reported as 3 µg/mL. Also, the “colony-forming units (CFU) after treatment” value in assay [2] (at MIC (or above), 24 h) is recorded as “No CFU were observed”; in assay [2] (setting [3]), “slightly less colony-forming units (CFU) were formed”.
